Results taken from ChEMBL document CHEMBL1201862, “PubChem BioAssay data set” (2004).
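Where inhibition never reached the appropriate level, the endpoint shown equals the highest concentration tested. Otherwise, values were interpolated linearly from a five-concentration, 48-hour dose response in 96-well plates. Here, GI50 denotes the concentration required for 50% inhibition of growth.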 Activity calls are given as the source filed them. Cut-off read from the data, not from the text of the source: active = GI50 up to about 1.1 µM and inactive = higher.

Tests used:
Assay in all cases: NCI tumour cell line growth inhibition, 48 h
A498 = tested on: A498
ACHN = tested on: ACHN
CCRF-CEM = tested on: CCRF-CEM
DU-145 = tested on: DU-145
EKVX = tested on: EKVX
HOP-62 = tested on: HOP-62
K562 = tested on: K562
KM12 = tested on: KM12
M14 = tested on: M14
MCF7 = tested on: MCF7
MOLT-4 = tested on: MOLT-4
NCI-H522 = tested on: NCI-H522
OVCAR-4 = tested on: OVCAR-4
OVCAR-5 = tested on: OVCAR-5
PC-3 = tested on: PC-3
RXF 393 = tested on: RXF 393
SF-268 = tested on: SF-268
SF-539 = tested on: SF-539
SK-MEL-5 = tested on: SK-MEL-5
HL-60 = tested on: HL-60

Measured: GI50

COc1ccc(CC(C)NCC(O)c2ccc(O)c(NC=O)c2)cc1 (stereo not drawn)
inactive: A498 > 100 µM | ACHN > 100 µM | CCRF-CEM > 100 µM | DU-145 > 100 µM | EKVX > 100 µM | HOP-62 > 100 µM | K562 > 100 µM | KM12 > 100 µM | M14 > 100 µM | MCF7 > 100 µM | MOLT-4 > 100 µM | NCI-H522 > 100 µM | OVCAR-4 > 100 µM | OVCAR-5 > 100 µM | PC-3 > 100 µM | RXF 393 > 100 µM | SF-268 > 100 µM | SF-539 > 100 µM | SK-MEL-5 > 100 µM

CCC(C)C(C(=O)N/N=C1/SCC(=O)N1c1ccccc1)C(=O)N/N=C1/SCC(=O)N1c1ccccc1 (stereo not drawn)
inactive: ACHN > 100 µM | CCRF-CEM 46.1 µM | DU-145 43.5 µM | EKVX > 100 µM | HL-60 > 100 µM | HOP-62 79.3 µM | K562 > 100 µM | KM12 27.5 µM | M14 47.1 µM | MCF7 34.1 µM | MOLT-4 36 µM | NCI-H522 56.9 µM | OVCAR-4 16.4 µM | OVCAR-5 > 100 µM | PC-3 > 100 µM | RXF 393 16.4 µM | SF-268 44.9 µM | SF-539 > 100 µM | SK-MEL-5 22 µM

CCOP(=O)(OCC)OC1CC(n2cnc3c(N(CC)CC)ncnc32)OC1CO[Si](C)(C)C(C)(C)C (stereo not drawn)
inactive: ACHN 15.3 µM | CCRF-CEM 14.4 µM | DU-145 15.5 µM | EKVX 5.86 µM | HL-60 65 µM | HOP-62 19.7 µM | K562 17.8 µM | KM12 19.7 µM | M14 18.8 µM | MCF7 21.8 µM | MOLT-4 11.2 µM | NCI-H522 14.3 µM | OVCAR-4 14.1 µM | OVCAR-5 19 µM | PC-3 12.2 µM | RXF 393 16.9 µM | SF-268 15.3 µM | SF-539 19.1 µM | SK-MEL-5 17.3 µM

O=C(c1ccccc1)C1C(C(=O)c2ccccc2)N1Cc1ccccc1 (stereo not drawn)
inactive: A498 33 µM | ACHN 41.9 µM | CCRF-CEM 36.6 µM | DU-145 24.4 µM | EKVX 28.3 µM | HOP-62 30.5 µM | K562 27.9 µM | KM12 27.8 µM | M14 28.6 µM | MOLT-4 40.6 µM | NCI-H522 24.5 µM | OVCAR-4 39.9 µM | OVCAR-5 > 100 µM | PC-3 23.4 µM | SF-268 37.1 µM | SK-MEL-5 20 µM

CCOn1c(C2(CC3CCN(C(=O)c4ccccc4)CC3)OCCO2)cc2ccccc21
inactive: A498 12.9 µM | ACHN 14.6 µM | CCRF-CEM 12.6 µM | DU-145 18.1 µM | EKVX 20.8 µM | HOP-62 15.1 µM | K562 11.4 µM | KM12 15.8 µM | M14 16.7 µM | MCF7 14.8 µM | MOLT-4 12.8 µM | NCI-H522 19.3 µM | OVCAR-4 15.2 µM | OVCAR-5 19 µM | PC-3 12.6 µM | RXF 393 17.4 µM | SF-268 19.3 µM | SF-539 18.7 µM | SK-MEL-5 11.9 µM

CCOC(=O)c1nc2ccccc2nc1Nc1ccc(OC)c(OC)c1
inactive: ACHN > 100 µM | CCRF-CEM > 100 µM | DU-145 > 100 µM | EKVX 18.7 µM | HL-60 > 100 µM | HOP-62 > 100 µM | K562 > 100 µM | KM12 > 100 µM | M14 > 100 µM | MCF7 > 100 µM | MOLT-4 > 100 µM | NCI-H522 > 100 µM | OVCAR-4 > 100 µM | OVCAR-5 > 100 µM | SF-268 27.3 µM | SF-539 > 100 µM | SK-MEL-5 63.7 µM

COc1ccc(C(=O)/C=C/c2ccc(OCC#N)cc2)cc1
inactive: A498 30.6 µM | ACHN 36.1 µM | CCRF-CEM 23.2 µM | DU-145 30 µM | EKVX 74.5 µM | HOP-62 53.1 µM | K562 28.2 µM | KM12 17.5 µM | M14 20 µM | MCF7 15.8 µM | MOLT-4 23.3 µM | NCI-H522 18.1 µM | OVCAR-4 32.7 µM | OVCAR-5 > 100 µM | PC-3 36.6 µM | RXF 393 16.3 µM | SF-268 34.1 µM | SF-539 20.4 µM | SK-MEL-5 15.1 µM

O=C(O)CN(CCNC(=O)OCC1c2ccccc2-c2ccccc21)CCNC(=O)OCC1c2ccccc2-c2ccccc21
inactive: ACHN 20.6 µM | CCRF-CEM 24.5 µM | DU-145 19.9 µM | EKVX 23.7 µM | HL-60 24.6 µM | HOP-62 21.3 µM | K562 19 µM | KM12 18.6 µM | M14 28.8 µM | MCF7 18 µM | MOLT-4 23.4 µM | NCI-H522 17.2 µM | OVCAR-4 27.1 µM | OVCAR-5 33.3 µM | PC-3 24 µM | RXF 393 36.1 µM | SF-268 19 µM | SF-539 25.4 µM | SK-MEL-5 19.6 µM

COc1ccc(C[C@H]2COC(=O)[C@@H]2Cc2cc(OC)c(OC)c(OC)c2)cc1OC
inactive: ACHN > 100 µM | CCRF-CEM 48.2 µM | DU-145 > 100 µM | EKVX > 65.8 µM | HOP-62 > 100 µM | K562 77.8 µM | KM12 > 70.3 µM | M14 90.4 µM | MCF7 > 64 µM | MOLT-4 32.4 µM | NCI-H522 > 68.7 µM | OVCAR-4 > 61.7 µM | OVCAR-5 > 100 µM | PC-3 42 µM | RXF 393 > 54.5 µM | SF-268 > 100 µM | SF-539 > 100 µM | SK-MEL-5 26.2 µM

O=c1[nH]c2nc3ccccc3c(=O)n2/c1=C/c1cccs1
inactive: ACHN > 100 µM | CCRF-CEM > 100 µM | DU-145 > 100 µM | EKVX > 100 µM | HL-60 > 100 µM | HOP-62 > 100 µM | K562 > 100 µM | KM12 70.3 µM | M14 > 100 µM | MCF7 > 100 µM | MOLT-4 > 100 µM | NCI-H522 > 100 µM | OVCAR-4 > 100 µM | OVCAR-5 > 100 µM | PC-3 > 100 µM | RXF 393 > 100 µM | SF-268 > 100 µM | SF-539 > 100 µM | SK-MEL-5 > 100 µM

CC(C)(C)OC(=O)CC(NC(=O)OC(C)(C)C)C(=O)N[C@@H]1CCCC[C@H]1C(=O)OCc1ccccc1 (stereo partly drawn)
inactive: ACHN 32.7 µM | CCRF-CEM 20.8 µM | DU-145 32.5 µM | EKVX 62.2 µM | HL-60 24.7 µM | HOP-62 27.8 µM | K562 18.4 µM | KM12 30.1 µM | M14 36.1 µM | MCF7 26.9 µM | MOLT-4 17 µM | NCI-H522 > 10 µM | OVCAR-4 45.2 µM | OVCAR-5 26.2 µM | PC-3 21.4 µM | RXF 393 > 100 µM | SF-268 77.3 µM | SF-539 24.5 µM | SK-MEL-5 12.1 µM
